From patent publication US7115690B2, “Fluorine-containing polymer, resist composition prepared from same and novel fluorine-containing monomer” (Daikin Industries, Ltd., priority 2001, dated 2006) come the findings set out here.

A short description of data set [1]: Measurement of pKa value by NaOH titration in water/acetone. To be noted: for pKa: water/acetone mixture (10/15 ml).
Protocol: (§1) In a water/acetone mixture (10/15 ml) solution was put 0.4045 g of the above-mentioned cyclopentene derivative, followed by stirring at room temperature. After it was confirmed that the solution became homogeneous, titration was carried out with about 0.2 mol/liter NaOH solution. A titration curve was obtained by adding a NaOH solution dropwise in increments of 0.15 ml and recording a pH value at every addition. An equivalence point was determined by an inflection point (maximum differential value of titration curve=dpH/dml) of the titration curve. […] From a titration curve of water/acetone solution and aqueous solution which had been measured previously as a blank solution, a difference in a pH value derived from an electric potential difference between the solutions at titration of 4.0 ml was 1.50.
A short description of another data set: physchem. To be noted: (2) pKa.
Setting [2] is: titration with about 0.2 mol/liter NaOH in water/acetone, corrected with blank.
The mark [3] stands for this setting: (2) pKa, titration with about 0.2 mol/liter NaOH in water/acetone, corrected with blank.

Values joined by “and” are separate entries in the source; they are usually repeats but may differ in a detail not shown here. Equal values may be shown once.

Protocol for physchem: as §1

For CH2═CF—C(CF3)2OH [reference compound], the “(2) pKa” value in data set [1] (setting [2]) is 8.0.
With CF2═CF—C(CF3)2OH [reference compound], in data set [1] (setting [2]), the “(2) pKa” value amounted to 7.1.
With `OC(C(F)(F)F)C(F)(F)F` [CF3CH(CF3)—OH, reference compound], in data set [1] (setting [2]), the “(2) pKa” value stood at 9.3.
With `OC(C1CC2C=CC1C2)(C(F)(F)F)C(F)(F)F` (centres unmarked), the pKa in data set [1] (setting [3]) was found to be 10.2.
Turning to `OC(C(F)(F)F)(C(F)(F)F)C1(F)C2C=CC(C2)C1(F)F` (centres unmarked), the pKa in “physchem” turned out to be 8.3.
Take `OC(C1C=CCC1)(C(F)(F)F)C(F)(F)F` (centres unmarked) [Example 12, cyclopentene having —C(CF3)2OH group]: in data set [1] (individual titrations of 0.4045 g, 0.8104 g and 0.9812 g in water/acetone (10/15 ml), listed as cyclopentene derivative having —C(CF3)2OH group), the “pKa value (single titration)” value was 9.95 and 9.86. In addition, the pKa in data set [1] (setting [3]) was 9.8; in data set [1] (pKa value (single titration), individual titrations of 0.4045 g, 0.8104 g and 0.9812 g in water/acetone (10/15 ml)) it was 9.62.
For the compound CH2═CHCH2C(CF3)2OH [reference compound], the “(2) pKa” value in data set [1] (setting [2]) is listed as 9.6.
`OC1(C(F)(F)F)C2C=CC(C2)C1(F)F` (centres unmarked): in data set [1] (setting [3]), the pKa turned out to be 11.5.
In the case of `OC(C(F)(F)F)(C(F)(F)F)C1(F)CC2C=CC1C2` (centres unmarked), in data set [1] (setting [3]), the pKa was 9.
